What was measured:
[1] = test system: HES-1; test: Western blot of HES-1 protein in nuclear extracts of breast cancer cell lines; assay type: cell-based; conditions: for effect on 17β-estradiol-mediated down regulation of HES-1 protein: antiestrogen together with 17β-estradiol, FIG. 1C
Method: FIG. 1(B) Regulation of HES-1 by 17β-estradiol in breast cancer cell lines; 50 μg of nuclear extract protein was used;
(§1) T47D cells were cultured in a 1:1 mixture of Hams F 12 and DME with 10% fetal bovine serum, MCF-7, MDA-MB-231 and COS-7 cells were cultured in DME with 10% fetal bovine serum. Before experiments with estrogen, the media were switched and phenol red free and DCC charcoal treated with serum were used. Culture conditions were set at 37° C., 5% CO2 and 100% humidity. For creation of tetracycline inducible stably transfected clones the tet-regulated expression system from Bibco BRL was used. A puromycin resistance gene was cloned into pTet TAk. T47D cells were then transfected with lipofectin (GibcoBRL) according to the manufacturer's instructions. Transfectants were selected with puromycin at 1 μg/ml. […] Transfectants were selected using G418 (Calbiochem) at 500 μg/ml. Cells lines stably transfected with tetracycline regulated expression constructs were grown in the presence of 1 μg/ml of tetracycline. At the time of induction the medium was removed and the cells were washed with PBS two times before adding new medium without tetracycline.
Nuclear extract and RNA preparation was carried out according to the protocol by Schreiber et al (E. Schreiber, et al., Nucleic Acids Res 17, 6419 (1989)) except that PBS was used instead of TBS and the following inhibitors were added: leupeptin at 1 μg/ml, PMSF at 0.2 mM, […] Na3VO4, 1 mM NaPPi, 1 mM NaF, 100 μM Na2MO4 (all from Sigma). Nuclear extracts were prepared from cells grown to a confluency of 60%-70% on a 150 mm culture dish. Protein content was determined by Bradford assay (BioRad).
(§2) Two peptides with identical sequence parts of HES-1 protein were synthesised and simultaneously injected into one rabbit (Genosys). The peptides were […] […] and […]. For Western blots, 100 μg of nuclear extract was separated on a 12% SDS-PAGE. Western blot analysis was performed according to standard protocols (Harlow and Lane, E. Harlow, and D. Lane, Cold Spring Harbour Laboratory Press, Cold Spring Harbour, N.Y., (1988)). HES-1 antibody was used at a dilution of 1:1000. The PCNA (C-10) antibody was from Santa Cruz and used at 1:1000. Donkey, anti-rabbit and sheep anti-mouse IgG HRP conjugated antibody (Amersham) were used at 1:10000. Antibody binding was visualised using ECL, Super Signal (Pierce).

[2] = test system: proliferating cell nuclear antigen (PCNA); test: PCNA Western blot on nuclear extracts of tet-regulated FLAG HES-1 T47D cells; assay type: cell-based
Method: (§3) FIG. 2 illustrates a proliferation assay T47D cells stably transfected with tetracycline regulated FLAG HES-1 expression. (A) Relative proliferation of two different clones HES-1(1) and HES-1(2) with inducible FLAG HES-1 expression, and two control clones. Tetracycline at 1 μg/ml and 17β-estradiol at 10 nM were used when stated. Data represents an average of six independent measurements. (B) Western blot of endogenous HES-1 and FLAG HES-1 expression in HES-1(1) and HES-1(2) cell lines with antibody against HES-1. PCNA Western blot on same extracts 50 μg of nuclear protein was used;
as §2

[3] = test system: histone acetylation; conditions: MCF-7 breast cancer cells, Pasqualini et al (1989); cited from earlier work
[4] = test system: T47D breast cancer cells; test: Proliferation assay, T47D cells stably transfected with tetracycline regulated FLAG HES-1 expression; assay type: cell-based
Method: as §3, §1
A proliferation determination kit from BioThema (A. Lundin, Methods Enzymol 305, 346-370 (1999)). The kit is based on measuring ATP and since the ATP level is constant between cells this can be used to evaluate the number of cells. The cells were grown on 24 well plates at 1000 cells/well. Treatment with hormone was in phenol red-free medium supplemented with 10% DCC treated fetal calf serum. […] Luciferase activity was measured using a Berthold luminometer.

[5] = test system: HES-1; test: All-trans retinoic acid effect on 17β-estradiol-dependent down regulation of HES-1 expression in MCF-7 cells (Western blot); assay type: cell-based; conditions: 1 μM all-trans retinoic acid, 17β estradiol 0.1 and 1 nM, 3 days
Method: MCF-7 cells were grown on 150 mm plates to 70% confluency in DME medium supplemented with 10% FBS. The medium was then changed to phenolAred free DME supplemented with DCC treated FBS to which 17β estradiol 0.1 and 1 nM respectively and 1 μM of all-trans retinoic acid was added individually or in combination. The plates were then incubated for 3 days in a humidified incubator at 37° C. and 5% CO2. Nuclear extract was produced according to Schreiber et al (E. Schreiber et al (1989) Nucleic Acids Res 17: 6419). 50 μg of this nuclear extract was then run on SDS-PAGE and blotted over to nitrocellulose membrane Hybond C super (Amersham). HES-1 protein was then detected using HES-1 antibody.

[6] = test system: CMV promoter; conditions: L. D. Dion et al., Virology 231 (1997); cited from earlier work
[7] = molecular target: T1, ERβ (Homo sapiens, UniProt Q92731); test: ERE TATA LUC reporter in COS-7 cells transfected with ERβ; assay type: cell-based; conditions: FIG. 9
T1 construct: FLAG; expressed in transfected cells; host or cells: COS-7
From the text: FIG. 9. Transient transfection of COS-7 cells using the ERE reporter vector ERE TATA LUC and expression vectors FLAG […] and FLAG HES-1 and treated with E2 and the histone deacetylase inhibitor Tricostatin A (TSA).

[8] = molecular target: T2, estrogen receptor α (ERα) (Homo sapiens, UniProt P03372); test: ERE TATA LUC reporter in COS-7 cells transfected with ERα; assay type: cell-based
T2 construct: FLAG; expressed in transfected cells; host or cells: COS-7
T2 sequence (P03372 1-595): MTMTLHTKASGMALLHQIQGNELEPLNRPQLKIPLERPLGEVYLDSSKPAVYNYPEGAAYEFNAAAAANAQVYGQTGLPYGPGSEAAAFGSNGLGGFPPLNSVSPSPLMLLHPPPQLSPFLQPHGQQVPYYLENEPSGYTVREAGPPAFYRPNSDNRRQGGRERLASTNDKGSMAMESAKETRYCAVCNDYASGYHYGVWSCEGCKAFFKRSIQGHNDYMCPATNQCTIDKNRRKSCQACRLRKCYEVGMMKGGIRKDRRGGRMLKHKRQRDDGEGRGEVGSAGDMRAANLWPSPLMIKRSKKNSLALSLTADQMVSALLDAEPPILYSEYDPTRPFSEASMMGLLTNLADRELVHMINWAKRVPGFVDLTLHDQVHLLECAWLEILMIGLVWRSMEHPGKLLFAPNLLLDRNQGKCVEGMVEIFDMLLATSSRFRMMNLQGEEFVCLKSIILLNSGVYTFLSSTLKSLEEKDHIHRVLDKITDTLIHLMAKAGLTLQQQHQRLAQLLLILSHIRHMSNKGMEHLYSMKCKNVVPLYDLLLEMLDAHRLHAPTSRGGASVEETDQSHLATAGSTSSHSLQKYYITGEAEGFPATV
Method: FIG. 5. Transfection of COS-7 cells with 3X ERE TATA LUC 1 μg and 100 ng of pcDNA3 FLAG ERα.
FIG. 8. Transient transfection of COS-7 cells using the ERE reporter vector ERE TATA LUC and expression vectors FLAG ERα and FLAG HES-1 and treated with E2 and the histone deacetylase inhibitor Trichostatin A (TSA).
Human ERα was epitope tagged with the artificial “FLAG” epitope using PCR cloning. The VP16 activation domain was fused to the N-tenninus of rat HES-1.

T1 sequence (Q92731 whole entry, species assumed): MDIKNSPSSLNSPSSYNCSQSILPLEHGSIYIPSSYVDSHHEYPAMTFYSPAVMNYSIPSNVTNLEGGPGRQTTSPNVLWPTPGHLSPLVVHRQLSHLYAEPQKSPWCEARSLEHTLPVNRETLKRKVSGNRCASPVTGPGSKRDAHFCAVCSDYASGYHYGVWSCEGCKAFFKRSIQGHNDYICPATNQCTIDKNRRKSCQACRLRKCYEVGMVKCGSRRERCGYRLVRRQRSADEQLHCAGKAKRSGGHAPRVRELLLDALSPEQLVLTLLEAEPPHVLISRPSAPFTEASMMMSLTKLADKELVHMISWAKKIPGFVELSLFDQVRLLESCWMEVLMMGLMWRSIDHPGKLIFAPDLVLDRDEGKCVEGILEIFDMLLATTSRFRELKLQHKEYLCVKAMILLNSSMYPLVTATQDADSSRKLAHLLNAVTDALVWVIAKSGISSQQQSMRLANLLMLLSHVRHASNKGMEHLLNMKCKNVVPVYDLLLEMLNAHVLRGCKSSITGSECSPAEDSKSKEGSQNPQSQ

CC/C(=C(\c1ccc(O)cc1)c1ccc(OCCN(C)C)cc1)c1ccccc1 [4OH tamoxifen]
effect on 17β-estradiol-mediated down regulation of HES-1 protein [1]: prevented

C[C@]12CC[C@@H]3c4ccc(O)cc4CC[C@H]3[C@@H]1CC[C@@H]2O [17β-estradiol]
regulation of proliferation marker PCNA ([2]; absence of exogenous FLAG-HES-1 expression): upregulated twofold
regulation of proliferation marker PCNA ([2]; presence of exogenous FLAG-HES-1): no regulation
expressed protein levels of HES-1 ([1]; MCF-7 breast cancer cells): suppress
17β-estradiol-mediated suppression of HES-1 ([1]; MDA-MB-231 breast cancer cells (lack ERα)): lack of 17β-estradiol-mediated suppression
expressed protein levels of HES-1 ([1]; T47D breast cancer cells): suppress
histone acetylation [3]: decreases
stimulation of proliferation ([4]; absence of tetracycline (with induced HES-1 expression), 17β-estradiol 10 nM): no 17β-estradiol stimulated proliferation
stimulation of proliferation ([4]; presence of tetracycline (without induced HES-1 expression), 17β-estradiol 10 nM): two-fold stimulation
stimulation of proliferation ([4]; two control cell lines with tetracycline-regulated vector lacking FLAG-HES-1): exhibited 17β-estradiol-stimulated proliferation

C[C@]12CC[C@@H]3c4ccc(O)cc4C[C@@H](CCCCCCCCC[S+]([O-])CCCC(F)(F)C(F)(F)F)[C@H]3[C@@H]1CC[C@@H]2O (stereo partly drawn) [ICI 182,780]
effect on 17β-estradiol-mediated down regulation of HES-1 protein [1]: prevented

CC1=C(/C=C/C(C)=C/C=C/C(C)=C/C(=O)O)C(C)(C)CCC1 [all-trans retinoic acid]
effect on 17β-estradiol-dependent down regulation of HES-1 expression [5]: inhibits

CCCC(=O)O.COc1cccc(C#CCON=C2CN3CCC2C3)c1 (stereo not drawn) [n-butyrate]
CMV promoter activity [6]: induce

O=C(c1ccc(OCN2CCCCC2)cc1)c1c(-c2ccc(O)cc2)sc2cc(O)ccc12 [raloxifen]
effect on 17β-estradiol-mediated down regulation of HES-1 protein [1]: prevented

CC(/C=C/C(=O)NO)=C\[C@@H](C)C(=O)c1ccc(N(C)C)cc1 [trichostatin A]
CMV promoter activity [6]: induce
17β-estradiol response on addition of TSA in combination with HES-1 [7]: no significant difference
makes 4OH tamoxifen into an effective agonist on ERE TATA LUC ([8]; COS-7 cells treated with 5 ng/ml trichostatin A for 8 hrs): same result
17β-estradiol response on addition of TSA together with HES-1 ([8]; COS-7 cells, ERα, FIG. 8): much larger response
